Measurements taken from article PMC10385824, “Antiproliferative and Tubulin-Destabilising Effects of 3-(Prop-1-en-2-yl)azetidin-2-Ones and Related Compounds in MCF-7 and MDA-MB-231 Breast Cancer Cells” (Pharmaceuticals, 2023).

Legend:
[1] = test system: purified bovine brain tubulin; assay: Tubulin polymerization assay (light scattering, BK006 kit); type: biochemical; details: compound at 10 μM; relative to vehicle
Outline: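 Purified bovine brain tubulin (3 mg/mL) in PIPES 80 mM pH 6.9, EGTA, MgCl2, 1 mM GTP, 10% glycerol incubated at 37 °C with compound at 10 µM or vehicle (1% DMSO or EtOH). Assembly followed turbidimetrically at 340 nm; values are means of two independent assays.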

HL-60(TB) = assay: NCI-60 SRB screen, leukemia; type: cell-based, human; details: Homo sapiens
K-562 = assay: NCI-60 SRB screen, leukemia; type: cell-based, human; details: Homo sapiens, K562, 48 h; read-out: GI50
MOLT-4 = assay: NCI-60 SRB screen, leukemia; type: cell-based, human; details: Homo sapiens; MOLT-4; five dose 0.01–100 µM, 48 h; read-out: GI50
NCI-H23 = assay: NCI-60 SRB screen, non-small cell lung cancer; type: cell-based, human; details: Homo sapiens; NCI-H23; five dose 0.01–100 µM, 48 h; read-out: GI50
NCI-H460 = assay: NCI-60 SRB screen, non-small cell lung cancer; type: cell-based, human; details: Homo sapiens; NCI-H460; five dose 0.01–100 µM, 48 h; read-out: GI50
SF295 = assay: NCI-60 SRB screen, CNS cancer; type: cell-based, human; details: Homo sapiens, SF-295; SF295; five dose 0.01–100 µM, 48 h; read-out: GI50
SF539 = assay: NCI-60 SRB screen, CNS cancer; type: cell-based, human; details: Homo sapiens, SF-539; SF539; five dose 0.01–100 µM, 48 h; read-out: GI50
SNB-19 = assay: NCI-60 SRB screen, CNS cancer; type: cell-based, human; details: Homo sapiens; SNB-19; five dose 0.01–100 µM, 48 h; read-out: GI50
SNB-75 = assay: NCI-60 SRB screen, CNS cancer; type: cell-based, human; details: Homo sapiens; SNB-75; five dose 0.01–100 µM, 48 h; read-out: GI50
PC-3 = assay: NCI-60 SRB screen, prostate cancer; type: cell-based, human; details: Homo sapiens; PC-3; five dose 0.01–100 µM, 48 h; read-out: GI50
DU-145 = assay: NCI-60 SRB screen, prostate cancer; type: cell-based, human; details: Homo sapiens; DU-145; five dose 0.01–100 µM, 48 h; read-out: GI50
MALME-3M = assay: NCI-60 SRB screen, melanoma; type: cell-based, human; details: Homo sapiens; MALME-3M; five dose 0.01–100 µM, 48 h; read-out: GI50
M14 = assay: NCI-60 SRB screen, melanoma; type: cell-based, human; details: Homo sapiens; M14; five dose 0.01–100 µM, 48 h; read-out: GI50
SK-MEL-2 = assay: NCI-60 SRB screen, melanoma; type: cell-based, human; details: Homo sapiens; SK-MEL-2; five dose 0.01–100 µM, 48 h; read-out: GI50
SK-MEL-5 = assay: NCI-60 SRB screen, melanoma; type: cell-based, human; details: Homo sapiens; SK-MEL-5; five dose 0.01–100 µM, 48 h; read-out: GI50
UACC-62 = assay: NCI-60 SRB screen, melanoma; type: cell-based, human; details: Homo sapiens; UACC-62; five dose 0.01–100 µM, 48 h; read-out: GI50
OVCAR-5 = assay: NCI-60 SRB screen, ovarian cancer; type: cell-based, human; details: Homo sapiens; OVCAR-5; five dose 0.01–100 µM, 48 h; read-out: GI50
OVCAR-8 = assay: NCI-60 SRB screen, ovarian cancer; type: cell-based, human; details: Homo sapiens; OVCAR-8; five dose 0.01–100 µM, 48 h; read-out: GI50
NCI/ADR-RES = assay: NCI-60 SRB screen, ovarian cancer; type: cell-based, human; details: Homo sapiens, five dose 0.01–100 µM, 48 h, read-out: GI50
ACHN = assay: NCI-60 SRB screen, renal cancer; type: cell-based, human; details: Homo sapiens, five dose 0.01–100 µM, 48 h, read-out: GI50
CAKI-1 = assay: NCI-60 SRB screen, renal cancer; type: cell-based, human; details: Homo sapiens; CAKI-1; five dose 0.01–100 µM, 48 h; read-out: GI50
TK-10 = assay: NCI-60 SRB screen, renal cancer; type: cell-based, human; details: Homo sapiens; TK-10; five dose 0.01–100 µM, 48 h; read-out: GI50
MDA-MB-231/ATCC = assay: NCI-60 SRB screen, breast cancer; type: cell-based, human; details: Homo sapiens, 48 h; for GI50: MDA-MB-231/ATCC, five dose 0.01–100 µM, read-out: GI50
MDA-MB-468 = assay: NCI-60 SRB screen, breast cancer; type: cell-based, human; details: Homo sapiens; MDA-MB-468; five dose 0.01–100 µM, 48 h; read-out: GI50
[2] = test system: MCF-7 human breast cancer cells; assay: cells; details: MCF7, MCF-7
Experimental: All biochemical assays were performed in triplicate for the determination of mean values reported. The human breast carcinoma cell line MCF-7 was purchased from the European Collection of Animal Cell Cultures (ECACC) and was cultured in Eagle’s minimum essential medium with 10% fetal bovine serum, 2 mM L-glutamine and 100 μg/mL penicillin/streptomycin. The medium was supplemented with 1% non-essential amino acids. […] All cells were sub-cultured 3 times/week by trypsinisation.
Cells were seeded at a density of 5 × 10^3 cells/well (MCF-7) in triplicate in 96-well plates. […] Cell proliferation for MCF-7 and MDA-MB-231 cells was analysed using the Alamar Blue assay (Invitrogen Corp.). […] Experiments were performed in triplicate on at least three separate occasions.

NCI-H226 = assay: NCI-60 SRB screen, non-small cell lung cancer; type: cell-based; details: Homo sapiens; NCI-H226; five dose 0.01–100 µM, 48 h; read-out: GI50
NCI-H332M = assay: NCI-60 SRB screen, non-small cell lung cancer; type: cell-based; details: Homo sapiens, five dose 0.01–100 µM, 48 h, read-out: GI50
[3] = HL-60(TB), five dose 0.01–100 µM, 48 h

| SMILES | Fold Reduction in Vmax [1] | GI50 (HL-60(TB); [3]) [nM] | GI50 (HL-60(TB); HL-60, NCI screen) [nM] | GI50 (K-562) [nM] | GI50 (MOLT-4) [nM] | GI50 (NCI-H23) [nM] | GI50 (NCI-H460) [nM] | GI50 (SF295) [nM] | GI50 (SF539) [nM] | GI50 (SNB-75) [nM] | GI50 (PC-3) [nM] | GI50 (DU-145) [nM] | GI50 (M14) [nM] | GI50 (SK-MEL-2) [nM] | GI50 (SK-MEL-5) [nM] | GI50 (UACC-62) [nM] | GI50 (OVCAR-5) [nM] | GI50 (OVCAR-8) [nM] | GI50 (NCI/ADR-RES) [nM] | GI50 (ACHN) [nM] | other results |
| --- | --- | --- | --- | --- | --- | --- | --- | --- | --- | --- | --- | --- | --- | --- | --- | --- | --- | --- | --- | --- | --- |
| C=C(C)C1C(=O)N(c2cc(OC)c(OC)c(OC)c2)C1c1ccc(OC)cc1 (stereo not shown) [9h, 4-(4-Methoxyphenyl)-1-(3,4,5-trimethoxyphenyl)-3-(prop-1-en-2-yl)azetidin-2-one] | 1.81 | 33.1 | < 34 | 41 | 39.7 | 23.7 | 35.6 | 43 | 35.2 | 38 | 45.3 | 29.1 | 221 | 18600 | 24.3 | 39.2 | 98.3 | 37.3 | 21.3 | 64.3 | GI50 (SNB-19): 67.5 nM; GI50 (MALME-3M): > 100000 nM; GI50 (CAKI-1): 83.1 nM; GI50 (TK-10): 96.5 nM; GI50 (MDA-MB-231/ATCC): 32.2 nM; IC50 (MDA-MB-231/ATCC; MDA-MB-231, obtained from NCI, five concentrations 0.01–100 μM, read-out: Antiproliferative Activity IC50): 31.3 nM; GI50 (MDA-MB-468): 25 nM; IC50 [2]: 33 nM |
| C=C(C)C1C(=O)N(c2cc(OC)c(OC)c(OC)c2)C1c1ccc(OC)c(N)c1 (stereo not shown) [9s, 4-(3-Amino-4-methoxyphenyl)-1-(3,4,5-trimethoxyphenyl)-3-(prop-1-en-2-yl)azetidin-2-one] | 2.66 | 28.3 | < 34 | 38.3 | 37.2 | 25.8 | 33.2 | 34.4 | 40.2 | 60.1 | 37.9 | 23.6 | 24.8 | 67.6 | 23.2 | 40.6 | 81.3 | 30.8 | 18.5 | 62 | GI50 (NCI-H226): 43.5 nM; GI50 (NCI-H332M): 51.1 nM; GI50 (CAKI-1): 49.1 nM; GI50 (TK-10): 64.9 nM; GI50 (MDA-MB-231/ATCC): 31.5 nM; GI50 (MDA-MB-468): 21.6 nM; IC50 [2]: 33 nM |
